In patent publication US12358918B2, “Aryl hydrocarbon receptor (AHR) activator compounds as cancer therapeutics” (THE BROAD INSTITUTE, INC., priority 2018, dated 2025):
Entries after “also recorded” stand apart in the source; their conditions may differ.

How the values were obtained:
[1] = test system: ZR-75-1 and MDA-MB-468 cells harboring an AGR2 knockout; details: CRISPR-Cas9 AGR2 knockout; FIGS. 10A-10D
[2] = test system: 578 cancer cell lines; test: PRISM multiplexed cellular viability screening; type: cell-based; details: relation to FOXA1 / FOXA1 target expression across cell lines
Experimental: The instant discovery was made using large-scale multiplex profiling of existing drugs against 578 cancer cell lines, employing a PRISM multiplexed cellular viability assay.
Parental cell lines were obtained from the Cancer Cell Line Encyclopedia (CCLE) project (1). PRISM cell line barcoding, pooling, and screening was performed as previously described with several improvements to the original method (2). First, the lentiviral vector was modified to encode the unique barcode identifier at the end of the puromycin resistance gene. This enables barcodes to be detected using a variant of the mRNA capture and Luminex detection method developed for the L1000 gene expression assay (3). Second, a set of ten inert barcodes were spiked-in to each well of each plate after cell lysis to control for variation in PCR amplification as detailed below.
Luminex technology produced .Ixb files containing data for each Luminex bead observed during detection. These .Ixb files were processed to compute Median Fluorescence Intensity (MFI) values, calculated as the median of the values obtained for all beads corresponding to a single PRISM barcode.
MFI values were log-transformed (log MFI) and used to perform basic quality control. To detect probable screening artifacts, log MFI values were centered to the median log MFI for each cell line on each plate in order to put the measurements from each cell line on the same scale. For each well on each plate, the median of these centered values was then standardized according to the global median and global MAD across all plate wells in the same position. Data from wells with a standardized score of greater than 5 or less than −5 were excluded from all further processing steps.
For each cell line on each plate, the distribution of MFI values observed for the DMSO-treated negative controls was compared to that of the positive controls using a robust form of the Strictly Standardized Mean Difference (SSMD*)′. Specifically, SSMD* was calculated as: […]
Data corresponding to SSMD values less than 2 were removed before calculating cell viability.
The data in the instant disclosure were produced according to two different screening protocols. In the PR500 protocol, ten inert barcodes were spiked-in to each well of each plate after cell lysis. For data produced using the PR500 protocol, normalized MFI (nMFI) values were computed by taking the ratio of each MFI value against the median of the inert barcodes within each well. […]
Cell viability was calculated as the ratio of nMFI to the median of the nMFI from the DMSO-treated negative controls for each cell line on each plate. […] The final viability values were calculated as the median of the batch-corrected cell viabilities from biological replicates for each cell line, compound and dose. […]

SMILES: Nc1nc2ccc(Cl)cc2c2nc(-c3ccco3)nn12 [CGS-15943, reference compound]
- rescue of cytotoxicity by AGR2 knockout [1]: not rescued by AGR2 knockout
- cell killing profile in PRISM [2]: cell killing profile specific for such FOXA1-dependent cancer cell lines; also recorded: selective killing of FOXA1-high cancer cell lines
